Source: patent US20250282771A1, “TETRAHYDROISOQUINOLINE HETEROBIFUNCTIONAL BCL-XL DEGRADERS” (Treeline Biosciences, Inc., priority 2022, published 2025)

Biological target: T1, N-terminal HiBiT tagged BCL-XL (Homo sapiens, UniProt Q07817)
T1 construct: expressed in transfected cells; host or cells: HT-1080 (ATCC CCL-121) cells stably transduced with lentivirus pLV-UBC-N-HiBiT-BCL-XL-PGK-puro
Assay: HiBiT based degradation assay
Format: cell-based
Settings: HT1080 cells expressing N-terminal HiBiT tagged BCL-XL; 6 h; BCL-XL level normalized with DMSO control
Source text: Human BCL-XL protein coding open reading frame fused with N-terminal HiBiT coding sequence was synthesized from Integrated DNA Technologies (IDT). Next, N-HiBiT-BCL-XL sequence was cloned into pLV-UBC-PGK-Puro, a lentivirus plasmid purchased from Vectorbuilder, to generate pLV-UBC-N-HiBiT-BCL-XL-PGK-puro. Lentiviral particles were generated from Lenti-X™ 293T cells (Clontech) by co-transfection of pLV-UBC-N-HiBiT-BCL-XL-PGK-puro plasmids and lentiviral packaging plasmid mix (Cellecta). HT-1080 [HT1080](ATCC CCL-121) cells were infected with the lentivirus, and HT1080 cells stably integrated with the lentiviral vectors were established by incubation with […] puromycin (Thermofisher).
HT1080 cells expressing N-terminal HiBiT tagged BCL-XL were dispensed into a 384-well plate pre-spotted with compounds at varying concentrations. Three thousand cells were seeded into each well in 40 μL of RPMI 1640 media. […] After incubation, luminescence was read on a PHERAstar FSX Plate Reader (BMG). BCL-XL degradation at each indicated concentration was normalized with the DMSO control. The BCL-XL degradation curves were plotted using a four-parameter logistic model. For compounds displaying hook effects, the curve fitting was performed using the bottom point of the hook curves (i.e., the point of Ymin) as the bottom plateau to calculate EC50.

T1 sequence (Q07817 whole entry): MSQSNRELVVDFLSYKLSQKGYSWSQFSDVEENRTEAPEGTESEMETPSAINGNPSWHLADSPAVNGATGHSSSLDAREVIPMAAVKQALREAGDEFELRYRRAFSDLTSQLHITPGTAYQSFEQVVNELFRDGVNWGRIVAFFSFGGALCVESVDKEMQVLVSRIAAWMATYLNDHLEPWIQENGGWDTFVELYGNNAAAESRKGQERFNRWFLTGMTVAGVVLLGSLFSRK

Row | Structure (SMILES) | Ymin (6 h)
1 | Cc1c(OCCCCCCCC(=O)N2CCN(c3cc4c(cc3F)C(=O)N(C3CCC(=O)NC3=O)C4=O)CC2)cccc1-c1ccc(N2CCc3cccc(C(=O)Nc4nc5ccccc5s4)c3C2)nc1C(=O)O (stereo not drawn) [Compound 114] | B (50% ≤ Ymin < 70%)
2 | Cc1c(OCCCN2CCN(c3cc4c(cc3F)C(=O)N(C3CCC(=O)NC3=O)C4=O)CC2)cccc1-c1ccc(N2CCc3cccc(C(=O)Nc4nc5ccccc5s4)c3C2)nc1C(=O)O (stereo not drawn) [Compound 101] | B (50% ≤ Ymin < 70%)
3 | Cc1c(Oc2ccc(CCCCN3CCN(c4cc5c(cc4F)C(=O)N(C4CCC(=O)NC4=O)C5=O)CC3)cc2)cccc1-c1ccc(N2CCc3cccc(C(=O)Nc4nc5ccccc5s4)c3C2)nc1C(=O)O (stereo not drawn) [Compound 117, 6-(8-(benzo[d]thiazol-2-ylcarbamoyl)-3,4-dihydroisoquinolin-2(1H)-yl)-3-(3-(4-(4-(4-(2-(2,6-dioxopiperidin-3-yl)-6-fluoro-1,3-dioxoisoindolin-5-yl)piperazin-1-yl)butyl)phenoxy)-2-methylphenyl)picolinic acid] | B (50% ≤ Ymin < 70%)
4 | Cc1c(OCCCCCCCCCN2CCN(c3cc4c(cc3F)C(=O)N(C3CCC(=O)NC3=O)C4=O)CC2)cccc1-c1ccc(N2CCc3cccc(C(=O)Nc4nc5ccccc5s4)c3C2)nc1C(=O)O (stereo not drawn) [Compound 105] | A (Ymin < 50%)
5 | Cc1c(OCCCCCCCN2CCN(c3cc4c(cc3F)C(=O)N(C3CCC(=O)NC3=O)C4=O)CC2)cccc1-c1ccc(N2CCc3cccc(C(=O)Nc4nc5ccccc5s4)c3C2)nc1C(=O)NO (stereo not drawn) [Compound 137, N-(benzo[d]thiazol-2-yl)-2-(5-(3-((7-(4-(2-(2,6-dioxopiperidin-3-yl)-6-fluoro-1,3-dioxoisoindolin-5-yl)piperazin-1-yl)heptyl)oxy)-2-methylphenyl)-6-(hydroxycarbamoyl)pyridin-2-yl)-1,2,3,4-tetrahydroisoquinoline-8-carboxamide] | C (Ymin ≥ 70%)
6 | Cc1cc(OCCCC2CCN(CC(=O)N3CCN(c4cc5c(cc4F)C(=O)N(C4CCC(=O)NC4=O)C5=O)CC3)CC2)ccc1-c1ccc(N2CCc3cccc(C(=O)Nc4nc5ccccc5s4)c3C2)nc1C(=O)O (stereo not drawn) [Compound 138] | C (Ymin ≥ 70%)
7 | Cc1c(OCCCCC2CCN(CC(=O)N3CCN(c4cc5c(cc4F)C(=O)N(C4CCC(=O)NC4=O)C5=O)CC3)CC2)cccc1-c1ccc(N2CCc3cccc(C(=O)Nc4nc5ccccc5s4)c3C2)nc1C(=O)O (stereo not drawn) [Compound 141] | B (50% ≤ Ymin < 70%)
8 | Cc1c(OCCCCCCCCCC(=O)N2CCN(c3cc4c(cc3F)C(=O)N(C3CCC(=O)NC3=O)C4=O)CC2)cccc1-c1ccc(N2CCc3cccc(C(=O)Nc4nc5ccccc5s4)c3C2)nc1C(=O)O (stereo not drawn) [Compound 102] | A (Ymin < 50%)
9 | Cc1c(OCCCCCCCCC(=O)N2CCN(c3cc4c(cc3F)C(=O)N(C3CCC(=O)NC3=O)C4=O)CC2)cccc1-c1ccc(N2CCc3cccc(C(=O)Nc4nc5ccccc5s4)c3C2)nc1C(=O)O (stereo not drawn) [Compound 109] | B (50% ≤ Ymin < 70%)

Same assay, conditions: HT1080 cells expressing N-terminal HiBiT tagged BCL-XL; 24 h; BCL-XL level normalized with DMSO control

Row | Structure (SMILES) | Ymin (24 h)
10 | Cc1c(OCCCC2CCN([C@H](C)C(=O)N3CCN(c4cc5c(cc4F)C(=O)N(C4CCC(=O)NC4=O)C5=O)CC3)CC2)cccc1-c1ccc(N2CCc3cccc(C(=O)Nc4nc5ccccc5s4)c3C2)nc1C(=O)O (stereo partly drawn) [Compound 124b, 6-(8-(benzo[d]thiazol-2-ylcarbamoyl)-3,4-dihydroisoquinolin-2(1H)-yl)-3-(3-(3-(1-((2R)-1-(4-(2-(2,6-dioxopiperidin-3-yl)-6-fluoro-1,3-dioxoisoindolin-5-yl)piperazin-1-yl)-1-oxopropan-2-yl)piperidin-4-yl)propoxy)-2-methylphenyl)picolinic acid] | B (50% ≤ Ymin < 70%)
11 | Cc1c(OCCC[C@@H]2CCN(CC(=O)N3CCN(c4cc5c(cc4F)C(=O)N(C4CCC(=O)NC4=O)C5=O)CC3)C2)cccc1-c1ccc(N2CCc3cccc(C(=O)Nc4nc5ccccc5s4)c3C2)nc1C(=O)O (stereo partly drawn) [Compound 122b, 6-[8-(1,3-benzothiazol-2-ylcarbamoyl)-3,4-dihydro-1H-isoquinolin-2-yl]-3-[3-[3-[(3R)-1-[2-[4-[2-(2,6-dioxo-3-piperidyl)-6-fluoro-1,3-dioxo-isoindolin-5-yl]piperazin-1-yl]-2-oxo-ethyl]pyrrolidin-3-yl]propoxy]-2-methyl-phenyl]pyridine-2-carboxylic acid] | B (50% ≤ Ymin < 70%)
12 | Cc1c(OCCCC2CCN(CCN3CCN(c4cc5c(cc4F)C(=O)N(C4CCC(=O)NC4=O)C5=O)CC3)CC2)cccc1-c1ccc(N2CCc3cccc(C(=O)Nc4nc5ccccc5s4)c3C2)nc1C(=O)O (stereo not drawn) [Compound 118, 6-(8-(benzo[d]thiazol-2-ylcarbamoyl)-3,4-dihydroisoquinolin-2(1H)-yl)-3-(3-(3-(1-(2-(4-(2-(2,6-dioxopiperidin-3-yl)-6-fluoro-1,3-dioxoisoindolin-5-yl)piperazin-1-yl)ethyl)piperidin-4-yl)propoxy)-2-methylphenyl)picolinic acid] | A (Ymin < 50%)
13 | Cc1c(OCCCC[C@H]2CCCN(CC(=O)N3CCN(c4cc5c(cc4F)C(=O)N(C4CCC(=O)NC4=O)C5=O)CC3)C2)cccc1-c1ccc(N2CCc3cccc(C(=O)Nc4nc5ccccc5s4)c3C2)nc1C(=O)O (stereo partly drawn) [Compound 135b, 6-[8-(1,3-benzothiazol-2-ylcarbamoyl)-3,4-dihydro-1H-isoquinolin-2-yl]-3-[3-[4-[(3S)-1-[2-[4-[2-(2,6-dioxo-3-piperidyl)-6-fluoro-1,3-dioxo-isoindolin-5-yl]piperazin-1-yl]-2-oxo-ethyl]-3-piperidyl]butoxy]-2-methyl-phenyl]pyridine-2-carboxylic acid] | B (50% ≤ Ymin < 70%)
14 | Cc1c(OCCCCC2CCN(CC3CCN(c4cc5c(cc4F)C(=O)N(C4CCC(=O)NC4=O)C5=O)CC3)CC2)cccc1-c1ccc(N2CCc3cccc(C(=O)Nc4nc5ccccc5s4)c3C2)nc1C(=O)O (stereo not drawn) [Compound 144, 6-[8-(1,3-benzothiazol-2-ylcarbamoyl)-3,4-dihydro-1H-isoquinolin-2-yl]-3-[3-[4-[1-[[1-[2-(2,6-dioxo-3-piperidyl)-6-fluoro-1,3-dioxo-isoindolin-5-yl]-4-piperidyl]methyl]-4-piperidyl]butoxy]-2-methyl-phenyl]pyridine-2-carboxylic acid] | A (Ymin < 50%)
15 | Cc1c(Oc2ccc(CCCCN3CCN(c4cc5c(cc4F)C(=O)N(C4CCC(=O)NC4=O)C5=O)CC3)cc2)cccc1-c1ccc(N2CCc3cccc(C(=O)Nc4nc5ccccc5s4)c3C2)nc1C(=O)O (stereo not drawn) [Compound 117, 6-(8-(benzo[d]thiazol-2-ylcarbamoyl)-3,4-dihydroisoquinolin-2(1H)-yl)-3-(3-(4-(4-(4-(2-(2,6-dioxopiperidin-3-yl)-6-fluoro-1,3-dioxoisoindolin-5-yl)piperazin-1-yl)butyl)phenoxy)-2-methylphenyl)picolinic acid] | B (50% ≤ Ymin < 70%)
16 | Cc1cc(OCCCC2CCN(CCN3CCN(c4cc5c(cc4F)C(=O)N(C4CCC(=O)NC4=O)C5=O)CC3)CC2)ccc1-c1ccc(N2CCc3cccc(C(=O)Nc4nc5ccccc5s4)c3C2)nc1C(=O)O (stereo not drawn) [Compound 121] | A (Ymin < 50%)
17 | Cc1c(OCCCCCCCN2CCN(c3cc4c(cc3F)C(=O)N(C3CCC(=O)NC3=O)C4=O)CC2)cccc1-c1ccc(N2CCc3cccc(C(=O)Nc4nc5ccccc5s4)c3C2)nc1C(=O)NO (stereo not drawn) [Compound 137, N-(benzo[d]thiazol-2-yl)-2-(5-(3-((7-(4-(2-(2,6-dioxopiperidin-3-yl)-6-fluoro-1,3-dioxoisoindolin-5-yl)piperazin-1-yl)heptyl)oxy)-2-methylphenyl)-6-(hydroxycarbamoyl)pyridin-2-yl)-1,2,3,4-tetrahydroisoquinoline-8-carboxamide] | B (50% ≤ Ymin < 70%)
18 | Cc1cc(OCCCC2CCN(CC(=O)N3CCN(c4cc5c(cc4F)C(=O)N(C4CCC(=O)NC4=O)C5=O)CC3)CC2)ccc1-c1ccc(N2CCc3cccc(C(=O)Nc4nc5ccccc5s4)c3C2)nc1C(=O)O (stereo not drawn) [Compound 138] | B (50% ≤ Ymin < 70%)
19 | Cc1c(OCC[C@@H](C)C2CCN(CC(=O)N3CCN(c4cc5c(cc4F)C(=O)N(C4CCC(=O)NC4=O)C5=O)CC3)CC2)cccc1-c1ccc(N2CCc3cccc(C(=O)Nc4nc5ccccc5s4)c3C2)nc1C(=O)O (stereo partly drawn) [Compound 130b] | C (Ymin ≥ 70%)
20 | Cc1c(OCCCCC2CCN(CC(=O)N3CCN(c4cc5c(cc4F)C(=O)N(C4CCC(=O)NC4=O)C5=O)CC3)CC2)cccc1-c1ccc(N2CCc3cccc(C(=O)Nc4nc5ccccc5s4)c3C2)nc1C(=O)O (stereo not drawn) [Compound 141] | B (50% ≤ Ymin < 70%)
21 | Cc1c(OCCC(F)(F)C2CCN(CC(=O)N3CCN(c4cc5c(cc4F)C(=O)N(C4CCC(=O)NC4=O)C5=O)CC3)CC2)cccc1-c1ccc(N2CCc3cccc(C(=O)Nc4nc5ccccc5s4)c3C2)nc1C(=O)O (stereo not drawn) [Compound 126, 6-(8-(benzo[d]thiazol-2-ylcarbamoyl)-3,4-dihydroisoquinolin-2(1H)-yl)-3-(3-(3-(1-(2-(4-(2-(2,6-dioxopiperidin-3-yl)-6-fluoro-1,3-dioxoisoindolin-5-yl)piperazin-1-yl)-2-oxoethyl)piperidin-4-yl)-3,3-difluoropropoxy)-2-methylphenyl)picolinic acid] | B (50% ≤ Ymin < 70%)
22 | Cc1c(OCCC[C@@H]2CCN(CC(=O)N3CCN(c4cc5c(cc4F)C(=O)N(C4CCC(=O)NC4=O)C5=O)CC3)CC2(F)F)cccc1-c1ccc(N2CCc3cccc(C(=O)Nc4nc5ccccc5s4)c3C2)nc1C(=O)O (stereo partly drawn) [Compound 120a, 6-(8-(benzo[d]thiazol-2-ylcarbamoyl)-3,4-dihydroisoquinolin-2(1H)-yl)-3-(3-(3-((4R)-1-(2-(4-(2-(2,6-dioxopiperidin-3-yl)-6-fluoro-1,3-dioxoisoindolin-5-yl)piperazin-1-yl)-2-oxoethyl)-3,3-difluoropiperidin-4-yl)propoxy)-2-methylphenyl)picolinic acid] | B (50% ≤ Ymin < 70%)
23 | Cc1c(OCCCC[C@@H]2CCCN(CC(=O)N3CCN(c4cc5c(cc4F)C(=O)N(C4CCC(=O)NC4=O)C5=O)CC3)C2)cccc1-c1ccc(N2CCc3cccc(C(=O)Nc4nc5ccccc5s4)c3C2)nc1C(=O)O (stereo partly drawn) [Compound 135a, 6-[8-(1,3-benzothiazol-2-ylcarbamoyl)-3,4-dihydro-1H-isoquinolin-2-yl]-3-[3-[4-[(3R)-1-[2-[4-[2-(2,6-dioxo-3-piperidyl)-6-fluoro-1,3-dioxo-isoindolin-5-yl]piperazin-1-yl]-2-oxo-ethyl]-3-piperidyl]butoxy]-2-methyl-phenyl]pyridine-2-carboxylic acid] | B (50% ≤ Ymin < 70%)
24 | Cc1c(OCCC[C@H]2CCN(CC(=O)N3CCN(c4cc5c(cc4F)C(=O)N(C4CCC(=O)NC4=O)C5=O)CC3)CC2(F)F)cccc1-c1ccc(N2CCc3cccc(C(=O)Nc4nc5ccccc5s4)c3C2)nc1C(=O)O (stereo partly drawn) [Compound 120b] | C (Ymin ≥ 70%)
